Earlier results, collected in patent publication US6461650B1, “Preparation for supplementing a beverage and method for enriching a beverage in calcium and magnesium” (Institut National de la Recherche Agronomique, priority 1998, dated 2002).

Tested on: rats
Conditions: incorporated in the diet

## inulin
  digestive assimilation of calcium and magnesium: increase the digestive assimilation of calcium and magnesium
